Values of other authors, collected in patent publication US12498364B2, “Use of soluble urokinase plasminogen activator receptor levels to indicate prevention of cardiovascular disease with a statin” (The Regents of the University of Michigan, priority 2019, dated 2025).
“Also recorded” adds a separate entry of the source.

Columns and labels:
[1] = cited from earlier work
interleukin 1β = molecular target: T1, interleukin 1β (Homo sapiens, UniProt P01584); settings: patients with heart disease and hs-CRP>2.0 mg/L; cited from earlier work
T1 construct: host or cells: patients (in vivo, endogenous cytokine)

| Compound | incidence of the primary outcome ([1]; overall study, HFpEF) | incidence of cardiovascular events compared to placebo ([1]; post-hoc, North American patients) | hs-CRP compared to placebo (interleukin 1β) | rate of cardiovascular events compared to placebo (interleukin 1β) |
| --- | --- | --- | --- | --- |
| CC(=O)S[C@@H]1CC2=CC(=O)CC[C@]2(C)[C@H]2CC[C@@]3(C)[C@@H](CC[C@@]34CCC(=O)O4)[C@H]12 [spironolactone] | did not decrease the incidence of the primary outcome | lower incidence of cardiovascular events | – | – |
| canakinumab | – | – | reduction in hs-CRP | lower rate of cardiovascular events; also recorded: reduced risk of adverse cardiovascular events |
